# Reference: ChEMBL document CHEMBL1201862, “PubChem BioAssay data set” (2004)
#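 Exposure lasted 48 hours, with cells grown in 96-well plates and compounds tested at five concentrations. GI50 marks 50% less growth.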 The source made the active and inactive calls. Cut-off read from the data, not from the text of the source: active = GI50 up to about 1.1 µM and inactive = higher.
# Key:
# Test in all cases: inhibition of tumour cell growth, NCI panel, 48 h
# SW-620 = test system: SW-620
# RXF 393 = test system: RXF 393
# CAKI-1 = test system: CAKI-1
# T47D = test system: T47D
# LOX IMVI = test system: LOX IMVI
# SK-MEL-2 = test system: SK-MEL-2
# HCC 2998 = test system: HCC 2998
# EKVX = test system: EKVX
# U-251 = test system: U-251
# HOP-92 = test system: HOP-92
# M14 = test system: M14
# UACC-257 = test system: UACC-257
# NCI-H460 = test system: NCI-H460
# Malme-3M = test system: Malme-3M
# DU-145 = test system: DU-145
# MDA-MB-231 = test system: MDA-MB-231
# SK-OV-3 = test system: SK-OV-3
# K562 = test system: K562
# SF-295 = test system: SF-295
# SF-268 = test system: SF-268
# TK-10 = test system: TK-10
# NCI/ADR-RES = test system: NCI/ADR-RES
# NCI-H226 = test system: NCI-H226
# MCF7 = test system: MCF7
# MDA-MB-435 = test system: MDA-MB-435
# PC-3 = test system: PC-3
# A498 = test system: A498
# SK-MEL-28 = test system: SK-MEL-28
# UO-31 = test system: UO-31
# HOP-62 = test system: HOP-62
# COLO 205 = test system: COLO 205
# HL-60 = test system: HL-60
# BT-549 = test system: BT-549
# Hs-578T = test system: Hs-578T
# A549 = test system: A549
# HCT-116 = test system: HCT-116
# SK-MEL-5 = test system: SK-MEL-5
# OVCAR-3 = test system: OVCAR-3
# HT-29 = test system: HT-29
# 786-0 = test system: 786-0
# NCI-H23 = test system: NCI-H23
# MOLT-4 = test system: MOLT-4
# OVCAR-5 = test system: OVCAR-5
# MDA-N = test system: MDA-N
# NCI-H522 = test system: NCI-H522
# ACHN = test system: ACHN
# UACC-62 = test system: UACC-62
# HCT-15 = test system: HCT-15
# OVCAR-8 = test system: OVCAR-8
# IGROV-1 = test system: IGROV-1
# SF-539 = test system: SF-539
# CCRF-CEM = test system: CCRF-CEM
# SN12C = test system: SN12C
# RPMI-8226 = test system: RPMI-8226
# SNB-75 = test system: SNB-75
# OVCAR-4 = test system: OVCAR-4
# SR = test system: SR
# KM12 = test system: KM12
# SNB-19 = test system: SNB-19
# DMS-273 = test system: DMS-273
# KM-20L2 = test system: KM-20L2
# M19-MEL = test system: M19-MEL
smiles,measurement,setting,value
CCOc1ccc(Nc2nc(N)nc(N)c2N=O)cc1,GI50,SW-620,91.2 µM (inactive)
same,GI50,RXF 393,43.9 µM (inactive)
same,GI50,CAKI-1,10.9 µM (inactive)
same,GI50,T47D,19.2 µM (inactive)
same,GI50,LOX IMVI,32.1 µM (inactive)
same,GI50,SK-MEL-2,65.2 µM (inactive)
same,GI50,HCC 2998,55.2 µM (inactive)
same,GI50,EKVX,48.4 µM (inactive)
same,GI50,U-251,> 100 µM (inactive)
same,GI50,HOP-92,17.9 µM (inactive)
same,GI50,M14,> 100 µM (inactive)
same,GI50,UACC-257,54 µM (inactive)
same,GI50,NCI-H460,32.9 µM (inactive)
same,GI50,Malme-3M,49 µM (inactive)
same,GI50,DU-145,38 µM (inactive)
same,GI50,MDA-MB-231,40 µM (inactive)
same,GI50,SK-OV-3,> 100 µM (inactive)
same,GI50,K562,53.5 µM (inactive)
same,GI50,SF-295,> 100 µM (inactive)
same,GI50,SF-268,89.7 µM (inactive)
same,GI50,TK-10,34.3 µM (inactive)
same,GI50,NCI/ADR-RES,47.1 µM (inactive)
same,GI50,NCI-H226,39.6 µM (inactive)
same,GI50,MCF7,38.4 µM (inactive)
same,GI50,MDA-MB-435,52.4 µM (inactive)
same,GI50,PC-3,28.4 µM (inactive)
same,GI50,A498,> 100 µM (inactive)
same,GI50,SK-MEL-28,66.5 µM (inactive)
same,GI50,UO-31,29.9 µM (inactive)
same,GI50,HOP-62,50.1 µM (inactive)
same,GI50,COLO 205,> 100 µM (inactive)
same,GI50,HL-60,> 100 µM (inactive)
same,GI50,BT-549,45.6 µM (inactive)
same,GI50,Hs-578T,50.9 µM (inactive)
same,GI50,A549,> 100 µM (inactive)
same,GI50,HCT-116,> 100 µM (inactive)
same,GI50,SK-MEL-5,49.5 µM (inactive)
same,GI50,OVCAR-3,24.6 µM (inactive)
same,GI50,HT-29,30.4 µM (inactive)
same,GI50,786-0,> 100 µM (inactive)
same,GI50,NCI-H23,59.7 µM (inactive)
same,GI50,MOLT-4,17.6 µM (inactive)
same,GI50,OVCAR-5,> 100 µM (inactive)
same,GI50,MDA-N,62.1 µM (inactive)
same,GI50,NCI-H522,55.5 µM (inactive)
same,GI50,ACHN,42.1 µM (inactive)
same,GI50,UACC-62,44.1 µM (inactive)
same,GI50,HCT-15,37.7 µM
same,GI50,OVCAR-8,51.1 µM (inactive)
same,GI50,IGROV-1,7.69 µM (inactive)
same,GI50,SF-539,80.5 µM (inactive)
same,GI50,CCRF-CEM,> 100 µM (inactive)
same,GI50,SN12C,56.6 µM (inactive)
same,GI50,RPMI-8226,47.4 µM (inactive)
same,GI50,SNB-75,28.1 µM (inactive)
same,GI50,OVCAR-4,69.3 µM (inactive)
same,GI50,SR,71.1 µM (inactive)
same,GI50,KM12,> 100 µM (inactive)
same,GI50,SNB-19,61 µM (inactive)
N#CC(c1ccnc(Cl)n1)c1nc2ccccc2s1 (stereo unspecified),GI50,SW-620,4.3 µM (inactive)
same,GI50,RXF 393,4.44 µM (inactive)
same,GI50,CAKI-1,3.87 µM (inactive)
same,GI50,T47D,4.19 µM (inactive)
same,GI50,LOX IMVI,3.55 µM (inactive)
same,GI50,SK-MEL-2,3.52 µM (inactive)
same,GI50,HCC 2998,25.4 µM (inactive)
same,GI50,EKVX,20.2 µM (inactive)
same,GI50,U-251,3.38 µM (inactive)
same,GI50,HOP-92,2.77 µM (inactive)
same,GI50,M14,3.76 µM (inactive)
same,GI50,UACC-257,6.19 µM (inactive)
same,GI50,NCI-H460,3.61 µM (inactive)
same,GI50,Malme-3M,2.7 µM (inactive)
same,GI50,DU-145,19.6 µM (inactive)
same,GI50,MDA-MB-231,2.91 µM (inactive)
same,GI50,SK-OV-3,3.21 µM (inactive)
same,GI50,K562,2 µM (inactive)
same,GI50,SF-295,8.49 µM (inactive)
same,GI50,SF-268,4.98 µM (inactive)
same,GI50,TK-10,7.33 µM (inactive)
same,GI50,NCI/ADR-RES,2.67 µM (inactive)
same,GI50,NCI-H226,3.76 µM (inactive)
same,GI50,MCF7,3.68 µM (inactive)
same,GI50,MDA-MB-435,3.92 µM (inactive)
same,GI50,PC-3,3.78 µM (inactive)
same,GI50,A498,15.8 µM (inactive)
same,GI50,SK-MEL-28,10.8 µM (inactive)
same,GI50,UO-31,4.07 µM (inactive)
same,GI50,HOP-62,18.7 µM (inactive)
same,GI50,COLO 205,10.4 µM (inactive)
same,GI50,HL-60,1.17 µM (inactive)
same,GI50,BT-549,3.29 µM (inactive)
same,GI50,Hs-578T,7.74 µM (inactive)
same,GI50,A549,8.59 µM (inactive)
same,GI50,HCT-116,2.58 µM (inactive)
same,GI50,SK-MEL-5,1.33 µM (inactive)
same,GI50,OVCAR-3,5.55 µM (inactive)
same,GI50,HT-29,2.88 µM (inactive)
same,GI50,786-0,3.78 µM (inactive)
same,GI50,NCI-H23,2.48 µM (inactive)
same,GI50,MOLT-4,3.55 µM (inactive)
same,GI50,OVCAR-5,9.53 µM (inactive)
same,GI50,MDA-N,3.38 µM (inactive)
same,GI50,NCI-H522,1.6 µM (inactive)
same,GI50,ACHN,13.7 µM (inactive)
same,GI50,UACC-62,3.21 µM (inactive)
same,GI50,HCT-15,3.44 µM
same,GI50,OVCAR-8,3.78 µM (inactive)
same,GI50,IGROV-1,3.65 µM (inactive)
same,GI50,SF-539,3.88 µM (inactive)
same,GI50,CCRF-CEM,0.063 µM (active)
same,GI50,SN12C,2.87 µM (inactive)
same,GI50,RPMI-8226,3.54 µM (inactive)
same,GI50,SNB-75,2.36 µM (inactive)
same,GI50,OVCAR-4,6.9 µM (inactive)
same,GI50,SR,3.03 µM (inactive)
same,GI50,KM12,4.37 µM (inactive)
same,GI50,SNB-19,4.35 µM (inactive)
COc1cc([C@@H]2c3cc4c(cc3[C@@H](NCCCN(C)C)[C@H]3COC(=O)[C@H]23)OCO4)cc(OC)c1O,GI50,SW-620,0.381 µM (active)
same,GI50,LOX IMVI,0.359 µM (active)
same,GI50,HCC 2998,0.51 µM (active)
same,GI50,EKVX,0.526 µM (active)
same,GI50,U-251,0.223 µM (active)
same,GI50,NCI-H460,0.0252 µM (active)
same,GI50,Malme-3M,0.242 µM (active)
same,GI50,SK-OV-3,0.248 µM (active)
same,GI50,SF-295,0.17 µM (active)
same,GI50,DMS-273,0.141 µM (active)
same,GI50,UO-31,0.44 µM (active)
same,GI50,HL-60,0.0447 µM (active)
same,GI50,SK-MEL-5,0.264 µM (active)
same,GI50,OVCAR-3,0.729 µM (active)
same,GI50,HT-29,1.62 µM (inactive)
same,GI50,MOLT-4,0.0436 µM (active)
same,GI50,KM-20L2,0.834 µM (active)
same,GI50,OVCAR-5,1.34 µM (inactive)
same,GI50,NCI-H522,0.525 µM (active)
same,GI50,ACHN,0.11 µM (active)
same,GI50,HCT-15,0.847 µM
same,GI50,IGROV-1,0.337 µM (active)
same,GI50,SF-539,0.399 µM (active)
same,GI50,CCRF-CEM,0.0785 µM (active)
same,GI50,RPMI-8226,0.48 µM (active)
same,GI50,M19-MEL,0.569 µM (active)
same,GI50,KM12,0.632 µM (active)
same,GI50,SNB-19,0.376 µM (active)
